Measured values taken from US11851431B2, “Tricyclic Janus kinase 1 inhibitors, and compositions and methods thereof” (LYNK PHARMACEUTICALS CO. LTD., priority 2018, dated 2023).

Key:
TYK2 = target: T1, TYK2 (Homo sapiens, UniProt P29597); assay: JAK biochemical microfluidic assay (Caliper EZ Reader), TYK2; conditions: 1 mM ATP; head prints (2.5 nM)
T1 construct: purchased Carna Biosciences
Protocol: (§1) JAK activity was determined in the reaction buffer 50 mM HEPES, 0.01% Brij35, 10 mM MgCl2, 2 mM DTT by a microfluidic assay. The phosphorylation of a FAM labeled peptide substrate was monitored in the Caliper EZ Reader II (Perkin Elmer). The assay condition for each batch of enzyme (Carna Biosciences) was optimized to obtain 10% conversion rate of peptide substrate.
(§2) The test compounds were dissolved in DMSO to a stock concentration of 10 mM. Three-fold serially diluted compounds with top concentration of 5 μM were pre-incubated with JAK1, JAK2 or TYK2 for 10 min at ambient temperature. The final DMSO concentration of assay mixture was 1%. […] The reaction was stopped by adding 50 mM EDTA.
(§3) The percent inhibition was calculated by the following formula. % Inhibition=(Conversionmax−Conversionsample)/(Conversionmax−Conversionmin)*100 Conversionmax means the conversion rate in the positive well without addition of compound • […] means the conversion rate in the well without addition of enzyme • Conversionsample means the conversion rate of test compounds
(§4) The dose-response (percent inhibition) curve was plotted and IC50 values were determined by GraphPad software.

BaF3-TEL-JAK1 = assay: Anti-proliferative assay, BaF3-TEL-JAK1 cells; assay type: cell-based; conditions: 72 h, Cell-Titer Glo
Protocol: (§5) Dimerization domain of Tel protein fused with JAK kinase domain was permanently transduced into BaF3 cells, whose proliferation is dependent on JAK activity in the absence of IL-3 induction. These engineered BaF3-Tel-JAK cells were used to monitor JAK inhibitory activities of the compounds in the cellular.
(§6) BaF3-Tel-JAK cells were cultured in RPMI-1640 (Corning) containing 10% fetal bovine serum. Cells were seeded at 2000/well of white flat bottom 96-well plates. The well containing medium only was used as background control. After 24h growth, cells were treated with compounds. The test compounds were dissolved in DMSO to a stock concentration of 10 mM. 3-fold serially diluted compounds for 9 concentrations with top concentration of 10 μM was added into the each well. The final DMSO concentration was 0.2%. The cells continued to grow at 37° C. in 5% CO2 for 72 h after compound treatment. The viability was measured by cellular ATP determination using the Cell-Titer Glo luciferase reagent (Promega). The Luminescence value was recorded by a multi-label reader Envision (PerkinElmer). Values were transformed to percent inhibition using the following formula. % Inhibition=(Readoutmax−Readoutsample)/(Readoutmax−Readoutmin)*100
(§7) The well without compound but with equivalent DMSO was defined as Readout max
(§8) The well with only medium and equivalent DMSO was defined as Readout min
(§9) The dose-response (percent inhibition) curve was plotted and GI50 values (the concentration that causes 50% growth inhibition) were determined by GraphPad software.

JAK2 = target: T2, JAK2 (Homo sapiens, UniProt O60674); assay: JAK biochemical microfluidic assay (Caliper EZ Reader), JAK2; conditions: 1 mM ATP; head prints (0.25 nM)
T2 construct: purchased Carna Biosciences
T2 sequence (O60674 whole entry): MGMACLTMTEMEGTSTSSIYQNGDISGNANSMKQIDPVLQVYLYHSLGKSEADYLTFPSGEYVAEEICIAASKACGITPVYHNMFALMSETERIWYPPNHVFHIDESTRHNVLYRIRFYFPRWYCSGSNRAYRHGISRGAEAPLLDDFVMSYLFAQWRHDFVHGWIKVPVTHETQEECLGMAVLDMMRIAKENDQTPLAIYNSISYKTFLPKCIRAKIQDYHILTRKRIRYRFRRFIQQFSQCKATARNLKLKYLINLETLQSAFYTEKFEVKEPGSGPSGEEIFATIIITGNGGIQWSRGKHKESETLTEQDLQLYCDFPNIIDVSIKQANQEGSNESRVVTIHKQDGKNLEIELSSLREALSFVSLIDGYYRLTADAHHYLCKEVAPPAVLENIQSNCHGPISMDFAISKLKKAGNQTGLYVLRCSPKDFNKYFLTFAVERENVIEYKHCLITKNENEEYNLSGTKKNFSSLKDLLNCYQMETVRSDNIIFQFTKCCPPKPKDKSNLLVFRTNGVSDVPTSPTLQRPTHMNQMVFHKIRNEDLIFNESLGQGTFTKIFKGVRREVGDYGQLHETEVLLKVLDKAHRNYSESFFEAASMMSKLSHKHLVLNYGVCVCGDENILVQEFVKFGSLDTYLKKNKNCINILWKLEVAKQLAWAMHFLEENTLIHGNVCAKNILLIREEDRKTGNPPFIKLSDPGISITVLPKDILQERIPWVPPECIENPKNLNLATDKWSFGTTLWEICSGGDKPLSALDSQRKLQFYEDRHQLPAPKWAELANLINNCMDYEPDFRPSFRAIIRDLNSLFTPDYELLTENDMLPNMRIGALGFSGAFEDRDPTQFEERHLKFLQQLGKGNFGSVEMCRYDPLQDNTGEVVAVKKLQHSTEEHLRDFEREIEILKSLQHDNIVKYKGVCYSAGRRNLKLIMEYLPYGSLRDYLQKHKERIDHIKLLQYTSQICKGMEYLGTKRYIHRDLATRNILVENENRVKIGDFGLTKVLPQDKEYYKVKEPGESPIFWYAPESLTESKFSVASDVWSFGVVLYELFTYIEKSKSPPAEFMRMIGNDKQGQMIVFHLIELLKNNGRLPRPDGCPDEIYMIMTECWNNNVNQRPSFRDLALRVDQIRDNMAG
Protocol: as §1, §2, §3, §4

BaF3-TEL-JAK2 = assay: Anti-proliferative assay, BaF3-TEL-JAK2 cells; assay type: cell-based; conditions: 72 h, Cell-Titer Glo
Protocol: as §5, §6, §7, §8, §9

JAK1 = target: T3, JAK1 (Homo sapiens, UniProt P23458); assay: JAK biochemical microfluidic assay (Caliper EZ Reader), JAK1; conditions: 1 mM ATP; head prints (5 nM)
T3 construct: purchased Carna Biosciences
T3 sequence (P23458 whole entry): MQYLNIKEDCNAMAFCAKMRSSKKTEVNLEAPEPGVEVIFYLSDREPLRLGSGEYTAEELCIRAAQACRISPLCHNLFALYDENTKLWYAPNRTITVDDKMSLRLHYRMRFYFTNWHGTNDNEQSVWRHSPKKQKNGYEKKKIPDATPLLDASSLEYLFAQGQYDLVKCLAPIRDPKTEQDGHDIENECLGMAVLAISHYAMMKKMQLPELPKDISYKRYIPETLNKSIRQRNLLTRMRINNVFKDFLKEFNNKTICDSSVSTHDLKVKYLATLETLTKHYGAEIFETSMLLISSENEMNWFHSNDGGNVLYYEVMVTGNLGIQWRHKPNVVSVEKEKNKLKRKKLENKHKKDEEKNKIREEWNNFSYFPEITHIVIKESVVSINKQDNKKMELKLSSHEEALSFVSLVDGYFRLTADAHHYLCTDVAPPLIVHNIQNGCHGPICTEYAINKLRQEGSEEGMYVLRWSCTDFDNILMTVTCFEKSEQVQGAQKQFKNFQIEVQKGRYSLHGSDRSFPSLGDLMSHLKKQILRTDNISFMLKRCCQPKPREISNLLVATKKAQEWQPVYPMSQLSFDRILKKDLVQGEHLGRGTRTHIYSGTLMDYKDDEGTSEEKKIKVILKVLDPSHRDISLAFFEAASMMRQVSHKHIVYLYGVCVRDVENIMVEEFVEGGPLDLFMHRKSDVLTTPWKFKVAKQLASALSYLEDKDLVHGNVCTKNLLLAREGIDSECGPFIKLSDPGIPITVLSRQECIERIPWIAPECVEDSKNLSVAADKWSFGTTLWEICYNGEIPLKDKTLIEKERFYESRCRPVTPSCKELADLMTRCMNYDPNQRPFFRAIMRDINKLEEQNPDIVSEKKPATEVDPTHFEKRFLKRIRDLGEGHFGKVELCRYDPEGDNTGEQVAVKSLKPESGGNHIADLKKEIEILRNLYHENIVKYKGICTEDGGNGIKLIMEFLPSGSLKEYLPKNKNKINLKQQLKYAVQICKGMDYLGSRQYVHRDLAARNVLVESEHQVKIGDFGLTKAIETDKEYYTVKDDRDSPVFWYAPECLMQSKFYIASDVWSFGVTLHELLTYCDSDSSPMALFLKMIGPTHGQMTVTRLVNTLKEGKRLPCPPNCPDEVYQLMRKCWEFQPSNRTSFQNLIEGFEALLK
Protocol: as §1, §2, §3, §4

[1] = Human liver microsome stability study; assay type: in vitro ADME; conditions: liver microsomes, pH 7.4, 0.5 mg/mL microsomal protein, 1 μM test article; for microsomal CLint at 1 μM: read-out: HLM Clint; for half-life at 1 μM: read-out: HLM T½
Protocol: Commercially available human liver microsome (vendor: Corning) were used for study the Phase I stability of test articles.
Microsomes were pre-incubated with test compound or control compounds for 10 min at 37° C. in 100 mM potassium phosphate buffer, pH 7.4, 3.3 mM MgCl2. The reaction was initiated by addition of 80 μL of the NADPH regenerating system to 320 μL of each incubation mixture per time point. The final incubation condition was composed of 0.5 mg/mL microsomal protein, 1 μM test article/positive control, 1.3 mM NADP, 3.3 mM glucose-6-phosphate, and 0.6 U/mL glucose-6-phosphate dehydrogenase. The 0-minute samples were prepared by addition of an 80 μL aliquot of each incubation mixture to 400 μL quench reagent to precipitate proteins. And then a 20 μL aliquot of the NADPH regenerating system was added. At 10, 30, and 90 minutes, the reaction will be stopped by the addition of cold acetonitrile solution containing tolbutamide and propanolol served as internal standard. The samples taken at all time points were centrifuged at 4000×g for 15 minutes. 80 μL of supernatant are taken into 96-well assay plates pre-added with 160 μL ultrapure water, and then analyzed by LC/MS/MS (Shimadzu LC30AD & API4000/API5000)).
Concentrations of test articles, control compounds in the samples were determined by using LC/MS/MS) method. Plotting of the chromatograms and peak area integrations are carried out by Analyst (AB Sciex).
In the determination of the in vitro elimination constant, ke, of the control compounds, the analyte/internal standard peak area ratios will be converted to percentage remaining (% Remaining) with the following equation:
The CLint of microsomes was calculated using the formula: CLint (mic)=0.693/T1/2/mg microsome protein per mL.

[2] = Rat pharmacokinetic study; assay type: in vivo, Sprague-Dawley rats
Protocol: Pharmacokinetic profile of test articles were evaluated in fasted Sprague-Dawley rats. Typically, Rats were dosed with 1 mg/kg and 2 mg/kg by intravenous injection and oral gavage, respectively. After dosing, blood samples were collected at each time point. For IV injection group, time points were set at 5, 15, 30 min, and then 1, 2, 4, 8 and 24 hours after dosing. For oral gavage group, time points were set at 15, 30 min, and then 1, 2, 4, 8, and 24 hours. Blood was collected into appropriately labeled tubes containing K2EDTA as the anticoagulant. Plasma was obtained within 1 hours of blood collection by centrifugation at 8000×g and 4° C. for 6 minutes, and then stored at −20° C. until analyzed by LC/MS/MS for quantification.
PK parameter values, including, but not necessarily limited to, the maximum plasma concentrations (Cmax), the time to reach the maximum concentrations (Tmax), and the area under the plasma concentration vs. time curve (AUC) from time zero to 24-hour (AUC0-24h) were determined using WinNonlin program.

[3] = Sprague-Dawley, plasma, 1 mg/kg, Rat iv @1 mpk, 0.2 mg/mL in 4% DMSO + 15% Solutol HS 15 + 81% Saline

T1 sequence (P29597 whole entry): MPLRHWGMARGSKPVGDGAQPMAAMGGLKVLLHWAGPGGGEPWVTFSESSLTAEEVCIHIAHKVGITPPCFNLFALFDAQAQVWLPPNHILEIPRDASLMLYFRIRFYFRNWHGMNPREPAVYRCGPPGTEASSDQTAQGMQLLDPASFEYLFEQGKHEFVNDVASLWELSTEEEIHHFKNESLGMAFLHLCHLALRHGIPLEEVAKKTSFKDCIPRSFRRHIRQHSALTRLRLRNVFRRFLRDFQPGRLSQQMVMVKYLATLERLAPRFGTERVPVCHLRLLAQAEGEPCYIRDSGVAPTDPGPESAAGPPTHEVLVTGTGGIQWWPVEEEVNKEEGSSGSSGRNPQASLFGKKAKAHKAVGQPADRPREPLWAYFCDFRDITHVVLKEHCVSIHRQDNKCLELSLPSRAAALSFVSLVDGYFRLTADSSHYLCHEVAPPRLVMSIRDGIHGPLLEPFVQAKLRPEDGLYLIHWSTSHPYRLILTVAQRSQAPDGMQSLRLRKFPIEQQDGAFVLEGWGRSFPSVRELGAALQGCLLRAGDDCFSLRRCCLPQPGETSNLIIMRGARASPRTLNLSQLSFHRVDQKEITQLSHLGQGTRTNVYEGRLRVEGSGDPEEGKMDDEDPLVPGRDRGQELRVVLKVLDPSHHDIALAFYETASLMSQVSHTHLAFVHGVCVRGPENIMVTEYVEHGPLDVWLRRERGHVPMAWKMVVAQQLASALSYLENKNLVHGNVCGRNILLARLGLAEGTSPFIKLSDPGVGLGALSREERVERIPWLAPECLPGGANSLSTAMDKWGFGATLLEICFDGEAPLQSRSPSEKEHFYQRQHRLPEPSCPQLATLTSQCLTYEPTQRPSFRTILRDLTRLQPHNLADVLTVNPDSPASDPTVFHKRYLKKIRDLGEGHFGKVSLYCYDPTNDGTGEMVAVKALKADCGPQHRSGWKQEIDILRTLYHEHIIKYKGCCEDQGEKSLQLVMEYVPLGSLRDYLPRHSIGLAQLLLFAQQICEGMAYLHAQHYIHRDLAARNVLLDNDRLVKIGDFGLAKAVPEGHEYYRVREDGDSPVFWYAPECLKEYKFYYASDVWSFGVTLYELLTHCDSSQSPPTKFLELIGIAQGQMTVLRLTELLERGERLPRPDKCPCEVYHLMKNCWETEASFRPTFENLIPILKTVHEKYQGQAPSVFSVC

Row | Compound | IC50 (TYK2) | GI50 (BaF3-TEL-JAK1) | IC50 (JAK2) | GI50 (BaF3-TEL-JAK2) | IC50 (JAK1) | microsomal CLint at 1 μM [1] | half-life at 1 μM [1] | AUC [2, 3] | Vd [2, 3] | clearance [2, 3] | half-life ([2]; Sprague-Dawley, plasma, 1 mg/kg, Rat iv @1 mpk, 0.2 mg/mL in 4% DMSO + 15% Solutol HS 15 + 81% Saline, read-out: t½ (converted)) | Pharmacokinetic profile in rats ([2]; conclusion in words)
1 | CCCS(=O)(=O)N[C@H]1C[C@H](n2cnc3cnc4[nH]ccc4c32)C1 [Example 3, N-(trans-3-(imidazo[4,5-d]pyrrolo[2,3-b]pyridin-1(6H)-yl)cyclobutyl)propane-1-sulfonamide] | 3.66 µM | 1.09 µM | 1.54 µM | 2.54 µM | 0.19 µM |  |  |  |  |  |  | 
2 | N#CC1CN(S(=O)(=O)NC23CC(n4cnc5cnc6[nH]ccc6c54)(C2)C3)C1 [Example 4, 3-Cyano-N-(3-(imidazo[4,5-d]pyrrolo[2,3-b]pyridin-1(6H)-yl)bicyclo[1.1.1]pentan-1-yl)azetidine-1-sulfonamide] | 0.111 µM |  | 0.0832 µM |  | 0.0032 µM | 2.11 µL/min/mg | 10.9 h | 402 ng·h/mL | 0.93 L/kg | 41.9 mL/min/kg | 0.26 h | good Pharmacokinetic profile
3 | N#CCCC(=O)NC12CC(n3cnc4cnc5[nH]ccc5c43)(C1)C2 [Example 14, 3-Cyano-N-(3-(imidazo[4,5-d]pyrrolo[2,3-b]pyridin-1(6H)-yl)bicyclo[1.1.1]pentan-1-yl)propanamide] |  |  | 0.0731 µM |  | 0.00806 µM | 0.77 µL/min/mg | 29.8 h |  |  |  |  | 
4 | O=S(=O)(NC12CC(n3cnc4cnc5[nH]ccc5c43)(C1)C2)c1ccc(Cl)cc1 [Example 28, 4-Chloro-N-(3-(imidazo[4,5-d]pyrrolo[2,3-b]pyridin-1(6H)-yl)bicyclo[1.1.1]pentan-1-yl)benzenesulfonamide] | 0.413 µM | 0.051 µM | 0.259 µM | 0.286 µM | 0.0067 µM |  |  |  |  |  |  | 
5 | CCCCS(=O)(=O)NC12CC(n3cnc4cnc5[nH]ccc5c43)(C1)C2 [Example 31, N-(3-(imidazo[4,5-d]pyrrolo[2,3-b]pyridin-1(6H)-yl)bicyclo[1.1.1]pentan-1-yl)butane-1-sulfonamide] | 0.17 µM | 0.0278 µM | 0.129 µM | 0.198 µM | 0.0048 µM |  |  |  |  |  |  | 
6 | CCCS(=O)(=O)N[C@H]1C[C@@H](n2cnc3cnc4[nH]ccc4c32)C1 [Example 2, N-(Cis-3-(imidazo[4,5-d]pyrrolo[2,3-b]pyridin-1(6H)-yl)cyclobutyl)propane-1-sulfonamide] | 2.85 µM | 0.352 µM | 1.09 µM | 2.3 µM | 0.0692 µM |  |  |  |  |  |  | 
7 | O=S(=O)(NC12CC(n3cnc4cnc5[nH]ccc5c43)(C1)C2)C1CC1 [Example 7, N-(3-(imidazo[4,5-d]pyrrolo[2,3-b]pyridin-1(6H)-yl)bicyclo[1.1.1]pentan-1-yl)cyclopropanesulfonamide] | 0.574 µM |  | 0.47 µM |  | 0.0453 µM |  |  |  |  |  |  | 
8 | O=C(CCC(F)(F)F)NC12CC(n3cnc4cnc5[nH]ccc5c43)(C1)C2 [Example 18, 4,4,4-Trifluoro-N-(3-(imidazo[4,5-d]pyrrolo[2,3-b]pyridin-1(6H)-yl)bicyclo[1.1.1]pentan-1-yl)butanamide] |  | 0.12 µM | 0.167 µM | 0.291 µM | 0.0187 µM |  |  |  |  |  |  | 
9 | O=C(NCC(F)(F)F)NC12CC(n3cnc4cnc5[nH]ccc5c43)(C1)C2 [Example 41, 1-(3-(Imidazo[4,5-d]pyrrolo[2,3-b]pyridin-1(6H)-yl)bicyclo[1.1.1]pentan-1-yl)-3-(2,2,2-trifluoroethyl)urea] |  | 0.0996 µM | 0.0946 µM | 1 µM | 0.0085 µM |  |  |  |  |  |  | 
10 | N#CC1CCN(S(=O)(=O)NC23CC(n4cnc5cnc6[nH]ccc6c54)(C2)C3)C1 (stereo not drawn) [Example 20, 3-Cyano-N-(3-(imidazo[4,5-d]pyrrolo[2,3-b]pyridin-1(6H)-yl)bicyclo[1.1.1]pentan-1-yl)pyrrolidine-1-sulfonamide] | 0.2 µM |  | 0.334 µM |  | 0.0083 µM |  |  |  |  |  |  | 
11 | O=S(=O)(CC1CC(F)(F)C1)NC12CC(n3cnc4cnc5[nH]ccc5c43)(C1)C2 [Example 46, 1-(3,3-Difluorocyclobutyl)-N-(3-(imidazo[4,5-d]pyrrolo[2,3-b]pyridin-1(6H)-yl)bicyclo[1.1.1]pentan-1-yl)methanesulfonamide] | 0.108 µM | 0.0142 µM | 0.0783 µM | 0.133 µM | 0.0022 µM |  |  |  |  |  |  | 
12 | COCCS(=O)(=O)NC12CC(n3cnc4cnc5[nH]ccc5c43)(C1)C2 [Example 6, N-(3-(imidazo[4,5-d]pyrrolo[2,3-b]pyridin-1(6H)-yl)bicyclo[1.1.1]pentan-1-yl)-2-methoxyethanesulfonamide] | 1.05 µM |  | 0.597 µM |  | 0.0244 µM |  |  |  |  |  |  | 
13 | CC(C)(C)OC(=O)NC12CC(n3cnc4cnc5[nH]ccc5c43)(C1)C2 [Example 1i, Tert-butyl (3-(imidazo[4,5-d]pyrrolo[2,3-b]pyridin-1(6H)-yl)bicyclo[1.1.1]pentan-1-yl)carbamate] | 2.88 µM |  | 0.472 µM |  | 0.043 µM |  |  |  |  |  |  | 
14 | CC(C)CS(=O)(=O)NC12CC(n3cnc4cnc5[nH]ccc5c43)(C1)C2 [Example 5, N-(3-(imidazo[4,5-d]pyrrolo[2,3-b]pyridin-1(6H)-yl)bicyclo[1.1.1]pentan-1-yl)-2-methylpropane-1-sulfonamide] | 0.111 µM | 0.01 µM | 0.145 µM | 0.38 µM | 0.00553 µM |  |  |  |  |  |  | 
15 | O=S(=O)(NC12CC(n3cnc4cnc5[nH]ccc5c43)(C1)C2)N1CC(F)(F)C1 [Example 23, 3,3-difluoro-N-(3-(imidazo[4,5-d]pyrrolo[2,3-b]pyridin-1(6H)-yl)bicyclo[1.1.1]pentan-1-yl)azetidine-1-sulfonamide] | 0.0335 µM | 0.0416 µM | 0.0508 µM | 0.148 µM | 0.0034 µM |  |  |  |  |  |  | 
